The results in this text go back to patent US8158657B2, “Heterocycles substituted pyridine derivatives and antifungal agent containing thereof” (Eisai R&D Management Co., Ltd., priority 2005, dated 2012).

In test [1] the test system is C. albicans CAF2-1 strain. Kind of test: Anti-Candida activity, MIC measurement. The following applies: CAF21STRAIN, C. albicans CAF2-1, RPMI1640, 42-48 hours at 35° C., visual inspection, read-out: Anti-Candida Activity (minimum inhibitory concentration, MIC). The class given is cell-based. A digest of the protocol:
(§1)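 C. albicans CAF2-1 was grown 48 h at 30° C. in SDB and diluted in RPMI1640 to 1.2×10^3 cells/mL. Frozen A. fumigatus Tsukuba was diluted to 4.5×10^3 cells/mL. Compounds, two-fold serially diluted in DMSO from 2.5 mg/mL, were cultured aerobically with fungi for 42-48 h at 35° C.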

Test [2] deals with C. albicans E81022 strain. Kind of test: Experimental systemic candidal infection model in mice. It is filed as in vivo. The following applies: peroral, 3 times every 4 hours, female ICR mice, observed until 14 days after infection. The procedure: A standing culture of C. albicans E81022 strain was carried out for 48 hours at 30° C. in sabouraud dextrose agar medium (SDA), the recovered fungal cells were suspended in sterilized physiological saline. By counting the fungal number on cytometry plate, the suspension was diluted to 2×10^7 cells/mL with sterilized physiological saline to serve fungal inoculum.
The fungal inoculum was used in the amounts of 0.2 mL to inoculate 4.5 to 5.5 week-old female ICR mice in the tail vein (4×10^6 cells/mouse).
From 0.5 to 1 hour after fungal inoculation, 0.2 mL of agent solution (dissolved or suspended in sterilized physiological saline containing 6.5% dimethyl sulfoxide and 3.5% Tween 80) was administered into the stomach using a peroral probe, 3 times every 4 hours. The agent concentration was 2.5 mg/kg or 10 mg/kg, and the number of animals in one group was 5 animals.
The protective effect was determined by observing life/death until 14 days after infection and calculating the mean survival days.

Test [3] has as its system A. fumigatus Tsukuba strain. Kind of test: Anti-Aspergillus activity, MIC measurement. It is filed as cell-based. The conditions noted are these: RPMI1640, 42-48 hours at 35° C., visual inspection, read-out: Anti-Aspergillus Activity (minimum inhibitory concentration, MIC). A digest of the protocol: as §1

Converted amounts (≈) assume the structure as drawn.

For the compound `Nc1ncccc1-c1cc(Cc2ccc(OCc3ccccc3)nc2)no1` [Example 12, 3-(3-(6-Benzyloxy-pyridin-3-ylmethyl)-isoxazol-5-yl)-pyridin-2-ylamine], the MIC in test [1] and in test [3] was 0.1 µg/mL (≈ 0.279 µM) in each case. In addition, the “Mean Survival Days” value is 10.8 days in test [2] (2.5 mg/kg) and 14.0 days in test [2] (10 mg/kg).
Turning to `Nc1ccc(-c2cc(Cc3ccc(OCc4ccccc4)cc3)no2)c(N)n1` [Example 13, 3-(3-(4-Benzyloxy-benzyl)-isoxazol-5-yl)-pyridin-2,6-diamine], the MIC turned out to be 0.2 µg/mL (≈ 0.537 µM) in test [1] and 0.1 µg/mL (≈ 0.269 µM) in test [3]. Moreover, the “Mean Survival Days” value in test [2] (2.5 mg/kg) came out at 13.8 days; in test [2] (10 mg/kg), 14.0 days.
In the same order, the values of `Nc1ccc(-c2cc(Cc3ccc(COc4ccccn4)cc3)no2)c(N)n1` [Example 14] are 0.39 µg/mL (≈ 1.04 µM), 0.39 µg/mL (≈ 1.04 µM), 13.4 days and 14.0 days.
Taken in the same sequence, the figures for `Cc1cccc(OCc2ccc(Cc3cc(-c4ccc(N)nc4N)on3)cc2)n1` [Example 15, 3-(3-(4-(6-Methyl-pyridin-2-yloxymethyl)-benzyl)-isoxazol-5-yl)-pyridin-2,6-diamine] were 0.2 µg/mL (≈ 0.516 µM), 0.39 µg/mL (≈ 1.01 µM), 10.8 days and 12.6 days.
Taken in the same sequence, the figures for `CCCCOCc1ccc(Cc2cc(-c3ccc(N)nc3N)on2)cc1` [Example 16, 3-(3-(4-Butoxymethyl-benzyl)-isoxazol-5-yl)-pyridin-2,6-diamine] were 0.39 µg/mL (≈ 1.11 µM), 0.39 µg/mL (≈ 1.11 µM), 4.8 days and 12.8 days.
With `Nc1ccc(-c2cc(Cc3ccc(Oc4ccccc4)cc3)no2)c(N)n1` [Example 17, 3-(3-(4-Phenoxy-benzyl)-isoxazol-5-yl)-pyridin-2,6-diamine], the results for the MIC in test [1] and in test [3] were 0.78 µg/mL (≈ 2.18 µM) and 0.2 µg/mL (≈ 0.558 µM), respectively. Further, the “Mean Survival Days” value in test [2] (2.5 mg/kg) is 8.2 days; in test [2] (10 mg/kg), 13.0 days.
Taken in the same sequence, the figures for `Cc1ccnc(COc2ccc(Cc3cc(-c4ccc(N)nc4N)on3)cc2)c1` [Example 24, 3-(3-(4-(4-Methyl-pyridin-2-ylmethoxy)-benzyl)-isoxazol-5-yl)-pyridin-2,6-diamine] were 0.39 µg/mL (≈ 1.01 µM), 0.78 µg/mL (≈ 2.01 µM), 7.4 days and 14.0 days.
On to `Nc1ccc(-c2cc(Cc3ccc(OCc4ccccc4)nc3)no2)c(N)n1` [Example 25, 3-(3-(6-benzyloxy-pyridin-3-ylmethyl)-isoxazol-5-yl)-pyridine-2,6-diamine], for which the MIC in test [1] and in test [3] was 0.2 µg/mL (≈ 0.536 µM) throughout. Moreover, the “Mean Survival Days” value in test [2] (2.5 mg/kg) stood at 12.2 days.
`COCc1ccc(-c2cc(Cc3ccc(COc4ccccn4)cc3)no2)c(N)n1` [Example 27]: the MIC amounted to 0.2 µg/mL (≈ 0.497 µM) in test [1] and 0.39 µg/mL (≈ 0.969 µM) in test [3]. Also, the “Mean Survival Days” value in test [2] (2.5 mg/kg) came out at 3.0 days; in test [2] (10 mg/kg), 10.0 days.
For `Nc1ncccc1-c1cc(Cc2ccc(OCc3ccccc3)cc2)on1` [Example 29, 3-(5-(4-Benzyloxy-benzyl)-isoxazol-3-yl)-pyridin-2-ylamine], the MIC came out at 0.39 µg/mL (≈ 1.09 µM) in test [1] and 0.2 µg/mL (≈ 0.56 µM) in test [3]. In addition, the “Mean Survival Days” value in test [2] (10 mg/kg) is 11.4 days.
`Nc1ncccc1-c1cc(Cc2ccc(COc3ccccn3)cc2)on1` [Example 30, 3-(5-(4-(Pyridin-2-yloxymethyl)-benzyl)-isoxazol-3-yl)-pyridin-2-ylamine]: the MIC was determined as 0.1 µg/mL (≈ 0.279 µM) in test [1] and 0.2 µg/mL (≈ 0.558 µM) in test [3]. For the same compound, the “Mean Survival Days” value in test [2] (2.5 mg/kg) amounted to 13.0 days.
With `Nc1ncccc1-c1cnn(Cc2ccc(OCc3ccccc3)cc2)c1` [Example 31, 3-(1-(4-Benzyloxy-benzyl)-1H-pyrazol-4-yl)-pyridin-2-ylamine], the MIC in test [1] amounted to 0.2 µg/mL (≈ 0.561 µM); in test [3], 0.39 µg/mL (≈ 1.09 µM). For the same compound, the “Mean Survival Days” value in test [2] (10 mg/kg) was 13.0 days.
`Nc1ncccc1-c1cnn(Cc2ccc(COc3ccccn3)cc2)c1` [Example 32, 3-(1-(4-(Pyridin-2-yloxymethyl)-benzyl)-1H-pyrazol-4-yl)-pyridin-2-ylamine]: the MIC turned out to be 0.2 µg/mL (≈ 0.56 µM) in test [1] and 0.78 µg/mL (≈ 2.18 µM) in test [3]. For the same compound, the results for the “Mean Survival Days” value in test [2] (2.5 mg/kg) and in test [2] (10 mg/kg) were 10.2 days and 12.2 days, respectively.
In the same order, the values of `CCCCOCc1ccc(Cn2cc(-c3cccnc3N)cn2)cc1` [Example 33, 3-(1-(4-Butoxymethyl-benzyl)-1H-pyrazol-4-yl)-pyridin-2-ylamine] are 0.39 µg/mL (≈ 1.16 µM), 0.78 µg/mL (≈ 2.32 µM), 2.4 days and 8.4 days.
Taken in the same sequence, the figures for `Nc1ccc(-c2cnn(Cc3ccc(OCc4ccccc4)cc3)c2)c(N)n1` [Example 36, 3-(1-(4-Benzyloxy-benzyl)-1H-pyrazol-4-yl)-pyridin-2,6-diamine] were 0.39 µg/mL (≈ 1.05 µM), 0.78 µg/mL (≈ 2.1 µM), 9.4 days and 14.0 days.
For the compound `Nc1ccc(-c2cnn(Cc3ccc(COc4ccccn4)cc3)c2)c(N)n1` [Example 37, 3-(1-(4-(Pyridin-2-yloxymethyl)-benzyl)-1H-pyrazol-4-yl)-pyridin-2,6-diamine], the MIC in test [1] amounted to 0.39 µg/mL (≈ 1.05 µM); in test [3], 1.56 µg/mL (≈ 4.19 µM). In addition, the “Mean Survival Days” value in test [2] (2.5 mg/kg) is 5.4 days; in test [2] (10 mg/kg), 14.0 days.
Taken in the same sequence, the figures for `CCCCOCc1ccc(Cn2cc(-c3ccc(N)nc3N)cn2)cc1` [Example 38, 3-(1-(4-Butoxymethyl-benzyl)-1H-pyrazol-4-yl)-pyridin-2,6-diamine] were 0.78 µg/mL (≈ 2.22 µM), 1.56 µg/mL (≈ 4.44 µM), 4.8 days and 10.0 days.
Take `Nc1ccc(-c2cc(Cc3ccc(Oc4ccccc4)nc3)no2)c(N)n1` [Example 40, 3-(3-(6-Phenoxy-pyridin-3-ylmethyl)-isoxazol-5-yl)-pyridin-2,6-diamine]: the MIC in test [1] and in test [3] was 0.39 µg/mL (≈ 1.09 µM) each time. Besides, the “Mean Survival Days” value in test [2] (2.5 mg/kg) came out at 11.6 days; in test [2] (10 mg/kg) it was 14.0 days.
As to `Nc1ncccc1-c1cc(Cc2ccc(OCc3ccc(F)cn3)cc2)no1` [Example 41, 3-(3-(4-(5-Fluoro-pyridin-2-ylmethoxy)-benzyl)-isoxazol-5-yl)-pyridin-2-ylamine], the MIC in test [1] came to 0.39 µg/mL (≈ 1.04 µM); in test [3], 0.2 µg/mL (≈ 0.531 µM). Besides, the “Mean Survival Days” value in test [2] (2.5 mg/kg) was 11.4 days; in test [2] (10 mg/kg), 11.8 days.
With `Cc1ccnc(OCc2ccc(Cc3cc(-c4cccnc4N)on3)cc2)c1` [Example 43, 3-(3-(4-(4-Methyl-pyridin-2-yloxymethyl)-benzyl)-isoxazol-5-yl)-pyridin-2-ylamine], the MIC worked out at 0.2 µg/mL (≈ 0.537 µM) in test [1] and 0.39 µg/mL (≈ 1.05 µM) in test [3]. Besides, the entries for the “Mean Survival Days” value in test [2] (2.5 mg/kg) and in test [2] (10 mg/kg) were 10.6 days and 14.0 days, respectively.
On to `Nc1ncccc1-c1cc(Cc2ccc(OCc3cccc(F)n3)cc2)no1` [Example 45, 3-(3-(4-(6-Fluoro-pyridin-2-ylmethoxy)-benzyl)-isoxazol-5-yl)-pyridin-2-ylamine], for which the MIC in test [1] is 0.39 µg/mL (≈ 1.04 µM); in test [3] it was 0.2 µg/mL (≈ 0.531 µM). Besides, the “Mean Survival Days” value turned out to be 10.6 days in test [2] (2.5 mg/kg) and 10.8 days in test [2] (10 mg/kg).
In the same order, the values of `Nc1ncccc1-c1cc(Cc2ccc(OCc3cc(Cl)ccn3)cc2)no1` [Example 51, 3-(3-(4-(4-Chloro-pyridin-2-ylmethoxy)-benzyl)-isoxazol-5-yl)-pyridin-2-ylamine] are 0.1 µg/mL (≈ 0.255 µM), 0.39 µg/mL (≈ 0.993 µM), 13.5 days and 14.0 days.
`Nc1ncccc1-c1cc(Cc2ccc(OCc3cccc(Cl)n3)cc2)no1` [Example 52, 3-(3-(4-(6-Chloro-pyridin-2-ylmethoxy)-benzyl)-isoxazol-5-yl)-pyridin-2-ylamine]: the MIC in test [1] and in test [3] was 0.39 µg/mL (≈ 0.993 µM) each time. In addition, the “Mean Survival Days” value in test [2] (2.5 mg/kg) stood at 10.6 days; in test [2] (10 mg/kg) it was 13.4 days.
Take `Nc1ncccc1-c1cc(Cc2ccc(COc3ccccc3)nc2)no1` [Example 54, 3-(3-(6-Phenoxymethyl-pyridin-3-ylmethyl)-isoxazol-5-yl)-pyridin-2-ylamine]: the MIC in test [1] was 0.1 µg/mL (≈ 0.279 µM); in test [3], 0.39 µg/mL (≈ 1.09 µM). Moreover, the “Mean Survival Days” value in test [2] (2.5 mg/kg) turned out to be 13.0 days; in test [2] (10 mg/kg), 13.6 days.
Taken in the same sequence, the figures for `Nc1ncccc1-c1cc(Cc2ccc(COc3cccc(F)n3)cc2)no1` [Example 55, 3-(3-(4-(6-Fluoro-pyridin-2-yloxymethyl)-benzyl)-isoxazol-5-yl)-pyridin-2-ylamine] were 0.05 µg/mL (≈ 0.133 µM), 0.1 µg/mL (≈ 0.266 µM), 13.8 days and 14.0 days.
